# Experimental data: PubChem BioAssay (NCI)
#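 Test compounds were applied to cells in 96-well plates for 48 hours at 5 doses. GI50 = concentration required for 50% inhibition of growth. TGI marks complete inhibition of growth.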
# What was measured:
# Test in all cases: NCI-60 cell line screen, 48 h
# 786-0 renal = tested on: 786-0 renal
# A498 renal = tested on: A498 renal
# A549 NSCLC = tested on: A549 NSCLC
# ACHN renal = tested on: ACHN renal
# BT-549 breast = tested on: BT-549 breast
# CCRF-CEM leukemia = tested on: CCRF-CEM leukemia
# COLO 205 colon = tested on: COLO 205 colon
# DU-145 prostate = tested on: DU-145 prostate
# HCC-2998 colon = tested on: HCC-2998 colon
# HCT-116 colon = tested on: HCT-116 colon
# HCT-15 colon = tested on: HCT-15 colon
# HL-60(TB) leukemia = tested on: HL-60(TB) leukemia
# HOP-92 NSCLC = tested on: HOP-92 NSCLC
# HS 578T breast = tested on: HS 578T breast
# HT29 colon = tested on: HT29 colon
# IGROV1 ovarian = tested on: IGROV1 ovarian
# KM12 colon = tested on: KM12 colon
# LOX IMVI melanoma = tested on: LOX IMVI melanoma
# M14 melanoma = tested on: M14 melanoma
# MALME-3M melanoma = tested on: MALME-3M melanoma
# MCF7 breast = tested on: MCF7 breast
# MDA-MB-231 breast = tested on: MDA-MB-231 breast
# MDA-MB-435 = tested on: MDA-MB-435
# MOLT-4 leukemia = tested on: MOLT-4 leukemia
# NCI-H226 lung = tested on: NCI-H226 lung
# NCI-H23 lung = tested on: NCI-H23 lung
# NCI-H460 lung = tested on: NCI-H460 lung
# NCI-H522 lung = tested on: NCI-H522 lung
# OVCAR-4 ovarian = tested on: OVCAR-4 ovarian
# OVCAR-5 ovarian = tested on: OVCAR-5 ovarian
# OVCAR-8 ovarian = tested on: OVCAR-8 ovarian
# PC-3 prostate = tested on: PC-3 prostate
# RPMI-8226 leukemia = tested on: RPMI-8226 leukemia
# SF-268 CNS = tested on: SF-268 CNS
# SF-295 CNS = tested on: SF-295 CNS
# SF-539 CNS = tested on: SF-539 CNS
# SK-MEL-28 melanoma = tested on: SK-MEL-28 melanoma
# SK-MEL-5 melanoma = tested on: SK-MEL-5 melanoma
# SK-OV-3 ovarian = tested on: SK-OV-3 ovarian
# SN12C renal = tested on: SN12C renal
# SNB-19 CNS = tested on: SNB-19 CNS
# SR leukemia = tested on: SR leukemia
# SW-620 colon = tested on: SW-620 colon
# T-47D breast = tested on: T-47D breast
# TK-10 renal = tested on: TK-10 renal
# U251 CNS = tested on: U251 CNS
# UACC-257 melanoma = tested on: UACC-257 melanoma
# UACC-62 melanoma = tested on: UACC-62 melanoma
# UO-31 renal = tested on: UO-31 renal
compound,measurement,setting,value
O=C(Nc1cccc(-n2cc(-c3ccncc3)c(-c3ccc(O)c(Cl)c3)n2)c1)Nc1ccc(Cl)c(Cl)c1,GI50,786-0 renal,1.58 µM
same,TGI,786-0 renal,7.12 µM
same,GI50,A498 renal,1.95 µM
same,TGI,A498 renal,7.01 µM
same,GI50,A549 NSCLC,1.54 µM
same,TGI,A549 NSCLC,7.27 µM
same,GI50,ACHN renal,2.02 µM
same,TGI,ACHN renal,7.81 µM
same,GI50,BT-549 breast,1.8 µM
same,TGI,BT-549 breast,4.32 µM
same,GI50,CCRF-CEM leukemia,1.39 µM
same,TGI,CCRF-CEM leukemia,5.73 µM
same,GI50,COLO 205 colon,2.5 µM
same,TGI,COLO 205 colon,6.23 µM
same,GI50,DU-145 prostate,2.39 µM
same,TGI,DU-145 prostate,12.1 µM
same,GI50,HCC-2998 colon,3.65 µM
same,TGI,HCC-2998 colon,> 100 µM
same,GI50,HCT-116 colon,1.83 µM
same,TGI,HCT-116 colon,5.33 µM
same,GI50,HCT-15 colon,1.63 µM
same,TGI,HCT-15 colon,8.52 µM
same,GI50,HL-60(TB) leukemia,2.71 µM
same,TGI,HL-60(TB) leukemia,7.02 µM
same,GI50,HOP-92 NSCLC,0.763 µM
same,TGI,HOP-92 NSCLC,3.38 µM
same,GI50,HS 578T breast,1.4 µM
same,TGI,HS 578T breast,7.1 µM
same,GI50,HT29 colon,3.42 µM
same,TGI,HT29 colon,39 µM
same,GI50,IGROV1 ovarian,2.35 µM
same,TGI,IGROV1 ovarian,6.78 µM
same,GI50,KM12 colon,1.4 µM
same,TGI,KM12 colon,3.11 µM
same,GI50,LOX IMVI melanoma,1.38 µM
same,TGI,LOX IMVI melanoma,5.06 µM
same,GI50,M14 melanoma,1.59 µM
same,TGI,M14 melanoma,3.79 µM
same,GI50,MALME-3M melanoma,2.11 µM
same,TGI,MALME-3M melanoma,6.86 µM
same,GI50,MCF7 breast,1.88 µM
same,TGI,MCF7 breast,5.23 µM
same,GI50,MDA-MB-231 breast,1.85 µM
same,TGI,MDA-MB-231 breast,> 100 µM
same,GI50,MDA-MB-435,1.96 µM
same,TGI,MDA-MB-435,5.92 µM
same,GI50,MOLT-4 leukemia,1.43 µM
same,TGI,MOLT-4 leukemia,4.52 µM
same,GI50,NCI-H226 lung,3.01 µM
same,TGI,NCI-H226 lung,9.53 µM
same,GI50,NCI-H23 lung,1.88 µM
same,TGI,NCI-H23 lung,6.62 µM
same,GI50,NCI-H460 lung,2.22 µM
same,TGI,NCI-H460 lung,12.4 µM
same,GI50,NCI-H522 lung,1.3 µM
same,TGI,NCI-H522 lung,3.76 µM
same,GI50,OVCAR-4 ovarian,2.4 µM
same,TGI,OVCAR-4 ovarian,9.5 µM
same,GI50,OVCAR-5 ovarian,3.26 µM
same,TGI,OVCAR-5 ovarian,55.9 µM
same,GI50,OVCAR-8 ovarian,1.65 µM
same,TGI,OVCAR-8 ovarian,5.61 µM
same,GI50,PC-3 prostate,2.07 µM
same,TGI,PC-3 prostate,7.45 µM
same,GI50,RPMI-8226 leukemia,1.49 µM
same,TGI,RPMI-8226 leukemia,4.54 µM
same,GI50,SF-268 CNS,2.65 µM
same,TGI,SF-268 CNS,16.6 µM
same,GI50,SF-295 CNS,2.29 µM
same,TGI,SF-295 CNS,7.27 µM
same,GI50,SF-539 CNS,1.57 µM
same,TGI,SF-539 CNS,4.87 µM
same,GI50,SK-MEL-28 melanoma,1.8 µM
same,TGI,SK-MEL-28 melanoma,6.58 µM
same,GI50,SK-MEL-5 melanoma,1.56 µM
same,TGI,SK-MEL-5 melanoma,2.99 µM
same,GI50,SK-OV-3 ovarian,3.43 µM
same,TGI,SK-OV-3 ovarian,> 100 µM
same,GI50,SN12C renal,2.72 µM
same,TGI,SN12C renal,> 100 µM
same,GI50,SNB-19 CNS,3.06 µM
same,TGI,SNB-19 CNS,> 100 µM
same,GI50,SR leukemia,0.43 µM
same,TGI,SR leukemia,2.75 µM
same,GI50,SW-620 colon,2.63 µM
same,TGI,SW-620 colon,7.32 µM
same,GI50,T-47D breast,1.84 µM
same,TGI,T-47D breast,6.41 µM
same,GI50,TK-10 renal,2.83 µM
same,TGI,TK-10 renal,7.56 µM
same,GI50,U251 CNS,1.25 µM
same,TGI,U251 CNS,5.61 µM
same,GI50,UACC-257 melanoma,2.02 µM
same,TGI,UACC-257 melanoma,5.13 µM
same,GI50,UACC-62 melanoma,1.99 µM
same,TGI,UACC-62 melanoma,4.94 µM
same,GI50,UO-31 renal,2.67 µM
same,TGI,UO-31 renal,8.34 µM
